# Key:
# Mus musculus = conditions: acute; oral; mortality
# Canidae = conditions: oral, Dog Other, body weight
# Colinus virginianus = conditions: reproduction developmental
# Apis mellifera = conditions: acute; duration: 48 hours; oral; unspecified; mortality
# Bibionidae = conditions: chronic/long-term; duration: 26 days; development
# Lepomis macrochirus = conditions: acute; duration: 96 hours; mortality
# Perdix sp. = conditions: acute; oral; unspecified; mortality
# Anas platyrhynchos = conditions: short-term; oral; feed; mortality
# Pimephales promelas = conditions: chronic/long-term; duration: 33 days; other
# Daphnia magna = conditions: chronic/long-term; duration: 21 days; other
# Typhlodromus pyri = experiment: LR50; higher = less toxic; conditions: chronic/long-term; duration: 7 days; mortality
Structure (SMILES),"NOAEL (Rattus norvegicus; subchronic, duration: 90 days) [mg/kg-day]",LD50 (Mus musculus) [mg/kg],"NOAEL (Rattus norvegicus; chronic, duration: 2 years, organ weight) [mg/kg-day]","NOAEL (Rattus norvegicus; reproduction developmental, reproduction) [mg/kg-day]","NOAEL (Canidae; chronic, duration: 1 years) [mg/kg-day]","NOAEL (Canidae; subchronic, duration: 90 days) [mg/kg-day]",NOEC (Colinus virginianus) [mg/kg-day],LD50 (Apis mellifera) [µg/piece],NOEC (Bibionidae) [mg/L],LC50 (Lepomis macrochirus) [µg/mL],LD50 (Perdix sp.) [mg/kg],LC50 (Anas platyrhynchos) [mg/kg-day],NOEC (Pimephales promelas) [mg/L],NOEC (Daphnia magna) [mg/L],"LC50 (Tagia sp.; acute, duration: 14 days, mortality) [mg/kg]","NOEC (Tagia sp.; chronic/long-term, duration: 56 days) [mg/kg]",LR50 (Typhlodromus pyri) [g/ha]
"NC(Cc1ncn[nH]1)C(=O)O (configuration not stated) [1,2,4-Triazole-3-alanine]",90,–,–,–,–,–,–,–,–,–,–,–,–,–,–,–,–
OC(Cn1cncn1)(c1ccc(F)cc1)c1ccccc1F (configuration not stated) [Flutriafol],–,179,1,13.5,5,5,35.8,> 2,1.6,33,616,435,4.8,0.31,> 1000,12.2,204

# Source: EPA's ToxValDB 9.5 (doi:10.2903/j.efsa.2010.1868)
